For 30 compounds, IC50 and EC50 results are on record in patent US11649227B2, “Allosteric chromenone inhibitors of phosphoinositide 3-kinase (PI3K) for the treatment of disease” (Petra Pharma Corporation, priority 2020, dated 2023).

Structures are written as SMILES.

For assay [1], the target named is human full length PIK3CA H1047R mutant (p110α/p85α complex) (Homo sapiens (Human), UniProt P42336, H1047R). Kind of assay: PI3K-Alpha kinase (PIK3CA) activity, H1047R mutant, Transcreener ADP2 FI assay. The following applies: PI3K-α (PIK3CA) H1047R mutant, biochemical. The procedure, abridged:
(§1)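 Recombinant full-length p110α/p85α (1-5 nM, wild-type or H1047R) preincubated with compound 1 h at 27° C, then reacted with 25 uM ATP and 50 uM PIP2diC8 or membrane PIP2:PS in pH 7.4 HEPES, 25 mM MgCl2, 5% DMSO (also pH 6.0/6.4 MOPS). Run to ~2.5 uM ADP; Transcreener ADP2 fluorescence converted via ADP calibration for IC50.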

A further assay relates to T-47D. Put plainly: Cellular Assay T-47D. The conditions noted are these: Homo sapiens, T47D; T-47D cells. In kind it is cell-based.
Assay [2] concerns the target human full length PIK3CA Wild-type (p110α/p85α complex) (Homo sapiens (Human), UniProt P42336). Put plainly: PI3K-Alpha kinase (PIK3CA) activity, wild-type, Transcreener ADP2 FI assay. The following applies: PI3K-α (PIK3CA) wild-type, biochemical. The procedure, abridged:
as §1

human full length PIK3CA Wild-type (p110α/p85α complex), sequence (P42336 whole entry): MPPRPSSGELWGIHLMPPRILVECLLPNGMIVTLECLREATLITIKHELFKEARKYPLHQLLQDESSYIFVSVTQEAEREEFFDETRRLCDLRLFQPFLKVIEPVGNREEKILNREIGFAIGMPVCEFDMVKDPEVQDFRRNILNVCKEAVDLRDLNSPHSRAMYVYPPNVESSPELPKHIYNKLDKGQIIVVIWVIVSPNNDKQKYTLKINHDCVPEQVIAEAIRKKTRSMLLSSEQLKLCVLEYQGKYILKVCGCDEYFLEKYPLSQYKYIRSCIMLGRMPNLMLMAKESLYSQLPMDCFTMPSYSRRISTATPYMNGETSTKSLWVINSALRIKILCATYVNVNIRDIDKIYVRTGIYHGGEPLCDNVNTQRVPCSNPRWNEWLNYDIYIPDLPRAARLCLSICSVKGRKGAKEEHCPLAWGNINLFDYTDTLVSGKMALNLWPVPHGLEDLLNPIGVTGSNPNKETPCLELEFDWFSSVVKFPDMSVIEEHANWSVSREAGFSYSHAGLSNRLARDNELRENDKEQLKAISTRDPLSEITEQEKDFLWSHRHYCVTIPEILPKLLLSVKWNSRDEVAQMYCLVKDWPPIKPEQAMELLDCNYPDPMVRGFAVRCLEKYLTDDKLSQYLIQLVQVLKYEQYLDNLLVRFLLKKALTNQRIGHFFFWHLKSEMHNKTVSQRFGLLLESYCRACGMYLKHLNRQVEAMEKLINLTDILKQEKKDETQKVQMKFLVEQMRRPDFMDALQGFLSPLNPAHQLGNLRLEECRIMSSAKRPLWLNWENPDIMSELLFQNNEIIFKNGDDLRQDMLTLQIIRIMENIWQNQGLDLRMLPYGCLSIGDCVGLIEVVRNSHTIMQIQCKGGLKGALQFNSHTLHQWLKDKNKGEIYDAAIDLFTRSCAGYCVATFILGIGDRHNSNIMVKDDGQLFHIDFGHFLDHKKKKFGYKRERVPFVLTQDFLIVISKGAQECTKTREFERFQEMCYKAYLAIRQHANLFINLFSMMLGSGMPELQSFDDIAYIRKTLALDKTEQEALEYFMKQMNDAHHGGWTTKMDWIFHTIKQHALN
human full length PIK3CA Wild-type (p110α/p85α complex), sequence (P27986 whole entry partner): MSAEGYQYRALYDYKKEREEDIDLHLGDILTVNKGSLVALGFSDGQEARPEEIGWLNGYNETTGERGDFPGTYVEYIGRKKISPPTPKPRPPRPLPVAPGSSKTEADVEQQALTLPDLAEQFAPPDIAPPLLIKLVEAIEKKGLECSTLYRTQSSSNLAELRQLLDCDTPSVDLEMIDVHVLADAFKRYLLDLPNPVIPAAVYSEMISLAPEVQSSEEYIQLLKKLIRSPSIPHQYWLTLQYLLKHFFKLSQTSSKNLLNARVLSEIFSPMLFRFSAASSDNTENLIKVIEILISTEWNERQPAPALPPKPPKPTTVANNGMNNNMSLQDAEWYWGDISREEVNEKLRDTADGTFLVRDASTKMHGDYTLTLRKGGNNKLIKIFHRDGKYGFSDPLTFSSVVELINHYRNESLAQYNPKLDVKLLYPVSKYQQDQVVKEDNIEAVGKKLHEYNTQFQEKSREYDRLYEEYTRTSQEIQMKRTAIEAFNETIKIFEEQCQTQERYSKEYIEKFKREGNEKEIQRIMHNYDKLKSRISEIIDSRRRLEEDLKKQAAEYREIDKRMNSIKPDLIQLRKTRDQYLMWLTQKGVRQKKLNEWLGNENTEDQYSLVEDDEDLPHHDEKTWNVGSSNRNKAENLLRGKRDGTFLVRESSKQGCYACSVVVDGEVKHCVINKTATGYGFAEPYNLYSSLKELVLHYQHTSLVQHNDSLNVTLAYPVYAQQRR
human full length PIK3CA H1047R mutant (p110α/p85α complex), sequence (P42336 whole entry H1047R): as the sequence (P42336 whole entry) above, with H1047R counted along it
human full length PIK3CA H1047R mutant (p110α/p85α complex), sequence (P27986 whole entry partner): as the sequence (P27986 whole entry partner) above

For the compound `Cc1cc(C(C)Nc2ccccc2C(=O)O)c2oc(N3CCC(F)(F)CC3)cc(=O)c2c1` (single isomer, unassigned) [Example 130, 2-[1-[2-(4,4-Difluoro-1-piperidyl)-6-methyl-4-oxo-chromen-8-yl]ethylamino]benzoic acid], the 50% inhibitory concentration (IC50) (usually the midpoint of a concentration-inhibition curve) was below 0.5 µM in assay [1] and 1 to 5 µM in assay [2]. For the same compound, in the assay with T-47D, the EC50 (commonly the midpoint of the concentration-response curve) is 1 to 5 µM. `COc1cc(C(=O)O)c(NC(C)c2cc(C)cc3c(=O)cc(N4CCC(C)(C)CC4)oc23)cc1F` (stereo not drawn) [Example 1, 2-[1-[2-(4,4-dimethyl-1-piperidyl)-6-methyl-4-oxo-chromen-8-yl]ethylamino]-4-fluoro-5-methoxy-benzoic acid] gave a half-maximal inhibitory concentration (IC50) in assay [1] of 1 to 5 µM. The same compound came in with an EC50 with T-47D of 15 to 24 µM. Compound `CONC(=O)c1ccccc1NC(C)c1cc(C)cc2c(=O)cc(N3CCC(C)(C)CC3)oc12` (stereo not drawn) [Example 19, 2-[1-[2-(4,4-Dimethyl-1-piperidyl)-6-methyl-4-oxo-chromen-8-yl]ethylamino]-N-methoxy-benzamide] registered an EC50 with T-47D of 15 to 24 µM. For the same compound, in assay [2], the half-maximal inhibitory concentration (IC50) lay within 0.5 to 1 µM.

Consider `Cc1cc(C(C)Nc2ccccc2-c2nnn[nH]2)c2oc(N3CCC(C)(C)CC3)cc(=O)c2c1` (stereo not drawn) [Example 20, 2-(4,4-Dimethyl-1-piperidyl)-6-methyl-8-[1-[2-(1H-tetrazol-5-yl)anilino]ethyl]chromen-4-one], for which the half-maximal effective concentration (EC50) in the assay on T-47D was in the range of 15 to 24 µM. The same compound yielded an IC50 in assay [2] of 0.5 to 1 µM. The compound `Cc1cc(C(C)Nc2cccc(Cl)c2C(=O)O)c2oc(N3CCC(C)(C)CC3)cc(=O)c2c1` (stereo not drawn) [Example 24, 2-Chloro-6-[1-[2-(4,4-dimethyl-1-piperidyl)-6-methyl-4-oxo-chromen-8-yl]ethylamino]benzoic acid] displayed a 50% effective concentration (EC50) with T-47D above 24 µM. Still for that read-out and setting: for `Cc1cc(C(C)Nc2cccc3c2C(=O)NC3=O)c2oc(N3CCC(C)(C)CC3)cc(=O)c2c1` (stereo not drawn) [Example 32, 4-((1-(2-(4,4-Dimethylpiperidin-1-yl)-6-methyl-4-oxo-4H-chromen-8-yl)ethyl)amino)isoindoline-1,3-dione] the value was above 24 µM. The same measure, in the same setting: the value for `Cc1cc(C(C)Nc2cc(F)ccc2C(=O)O)c2oc(N3CCC(C)(C)CC3)cc(=O)c2c1` (stereo not drawn) [Example 36, 2-[1-[2-(4,4-Dimethyl-1-piperidyl)-6-methyl-4-oxo-chromen-8-yl]ethylamino]-4-fluoro-benzoic acid] was 5 to 15 µM; that for `Cc1cc(C(C)Nc2ccccc2C(=O)O)c2oc(NCC(C)C)cc(=O)c2c1` (stereo not drawn) [Example 77, 2-[1-[2-(Isobutylamino)-6-methyl-4-oxo-chromen-8-yl]ethylamino]benzoic acid] was above 24 µM. Same read-out and setting: the value for `Cc1cc(C(C)Nc2ccccc2C(=O)O)c2oc(N(C)C)cc(=O)c2c1` (stereo not drawn) [Example 78, 2-[1-[2-(Dimethylamino)-6-methyl-4-oxo-chromen-8-yl]ethylamino]benzoic acid] was above 24 µM; that for `Cc1cc(C(C)Nc2ccccc2C(=O)O)c2oc(N3CCCC(C)C3)cc(=O)c2c1` (stereo not drawn) [Example 79, 2-[1-[6-Methyl-2-(3-methyl-1-piperidyl)-4-oxo-chromen-8-yl]ethylamino]benzoic acid] was 1 to 5 µM. Consider `Cc1cc(C(C)Nc2ccccc2C(=O)O)c2oc(N3CCC4(CCNCC4)CC3)cc(=O)c2c1` (stereo not drawn) [Example 89, 2-[1-[2-(3,9-Diazaspiro[5.5]undecan-3-yl)-6-methyl-4-oxo-chromen-8-yl]ethylamino]benzoic acid], for which, in the assay with T-47D, the EC50 was above 24 µM. For the compound `Cc1cc(C(C)Nc2ccccc2C(=O)O)c2oc(N3CCN(C(=O)OC(C)(C)C)CC3)cc(=O)c2c1` (stereo not drawn) [Example 90, 2-[1-[2-(4-tert-Butoxycarbonylpiperazin-1-yl)-6-methyl-4-oxo-chromen-8-yl]ethylamino]benzoic acid], in the assay on T-47D, the half-maximal effective concentration (EC50) fell in the range of 15 to 24 µM.

In the assay with T-47D, `Cc1cc(C(C)Nc2ccccc2C(=O)O)c2oc(N3CCNCC3)cc(=O)c2c1` (stereo not drawn) [Example 91, 2-[1-(6-Methyl-4-oxo-2-piperazin-1-yl-chromen-8-yl)ethylamino]benzoic acid] displayed an EC50 above 24 µM. The same measure, in the same setting: for `Cc1cc(C(C)Nc2ccccc2C(=O)O)c2oc(N3CCN(C)CC3)cc(=O)c2c1` (stereo not drawn) [Example 92, 2-[1-[6-Methyl-2-(4-methylpiperazin-1-yl)-4-oxo-chromen-8-yl]ethylamino]benzoic acid] the value was above 24 µM.

In the case of `Cc1cc(C(C)Nc2ccccc2C(=O)O)c2oc(N3CCC4(CCCCO4)CC3)cc(=O)c2c1` (stereo not drawn) [Example 93, 2-[1-[6-Methyl-2-(1-oxa-9-azaspiro[5.5]undecan-9-yl)-4-oxo-chromen-8-yl]ethylamino]benzoic acid], the IC50 is 0.5 to 1 µM in assay [1] and 5 to 10 µM in assay [2]. This compound gave an EC50 in the assay with T-47D of 5 to 15 µM. In the assay on T-47D, `Cc1cc(C(C)Nc2ccccc2C(=O)O)c2oc(N3CCC4(CCOCC4)CC3)cc(=O)c2c1` (stereo not drawn) [Example 94, 2-[1-[6-Methyl-2-(3-oxa-9-azaspiro[5.5]undecan-9-yl)-4-oxo-chromen-8-yl]ethylamino]benzoic acid] had an EC50 of 5 to 15 µM.

Take `Cc1cc(C(C)Nc2ccccc2C(=O)O)c2oc(N3CCCC4(CCNC4=O)C3)cc(=O)c2c1` (stereo not drawn) [Example 95, 2-[1-[6-Methyl-4-oxo-2-(1-oxo-2,9-diazaspiro[4.5]decan-9-yl)chromen-8-yl]ethylamino]benzoic acid]: in the assay on T-47D, the EC50 is above 24 µM. With `Cc1cc(C(C)Nc2ccccc2C(=O)O)c2oc(N3CCC4(CCCC4)CC3)cc(=O)c2c1` (stereo not drawn) [Example 96, 2-[1-[2-(8-Azaspiro[4.5]decan-8-yl)-6-methyl-4-oxo-chromen-8-yl]ethylamino]benzoic acid], the half-inhibitory concentration (IC50) in assay [1] lay within 0.5 to 1 µM; in assay [2], 1 to 5 µM. In the assay with T-47D, this compound came in with a half-maximal effective concentration (EC50) of 1 to 5 µM. `Cc1cc(C(C)Nc2ccccc2C(=O)O)c2oc(N3CCC4(CC3)COC4)cc(=O)c2c1` (stereo not drawn) [Example 98, 2-[1-[6-Methyl-2-(2-oxa-7-azaspiro[3.5]nonan-7-yl)-4-oxo-chromen-8-yl]ethylamino]benzoic acid] displayed an EC50 with T-47D above 24 µM.

As to `CCNc1cc(=O)c2cc(C)cc(C(C)Nc3ccccc3C(=O)O)c2o1` (stereo not drawn) [Example 126, 2-[1-[2-(Ethylamino)-6-methyl-4-oxo-chromen-8-yl]ethylamino]benzoic acid], the IC50 in assay [1] was in the range of 0.5 to 1 µM. In the assay with T-47D, this compound displayed an EC50 above 24 µM.

Regarding `Cc1cc(C(C)Nc2ccccc2C(=O)O)c2oc(N3CCCC3)cc(=O)c2c1` (stereo not drawn) [Example 368, 2-[1-(6-Methyl-4-oxo-2-pyrrolidin-1-yl-chromen-8-yl)ethylamino]benzoic acid], in the assay on T-47D, the 50% effective concentration (EC50) was in the range of 15 to 24 µM. Compound `Cc1cc(CNc2ccccc2C(=O)O)c2oc(N3CCC(C)(C)CC3)cc(=O)c2c1` [Example 369, 2-[[2-(4,4-Dimethyl-1-piperidyl)-6-methyl-4-oxo-chromen-8-yl]methylamino]benzoic acid] returned an EC50 with T-47D above 24 µM. On the same count and under the same terms, for `Cc1cc(C(C)Nc2ccccc2C(=O)O)c2oc(N3CCC(C)CC3)cc(=O)c2c1` (stereo not drawn) [Example 370, 2-[1-[6-Methyl-2-(4-methyl-1-piperidyl)-4-oxo-chromen-8-yl]ethylamino]benzoic acid] the value was 1 to 5 µM; for `Cc1cc(C(C)Nc2ccccc2C(=O)O)c2oc(N3CCC3)cc(=O)c2c1` (stereo not drawn) [Example 375, 2-[1-[2-(Azetidin-1-yl)-6-methyl-4-oxo-chromen-8-yl]ethylamino]benzoic acid], above 24 µM. Turning to `Cc1cc([C@@H](C)Nc2ccccc2C(=O)O)c2oc(N3CCCCC3)cc(=O)c2c1` [Example 376, 2-[[(1R)-1-[6-Methyl-4-oxo-2-(1-piperidyl)chromen-8-yl]ethyl]amino]benzoic acid], in the assay with T-47D, the EC50 lay within 1 to 5 µM. Further, the IC50 in assay [2] is 1 to 5 µM. For `COCCOCCOC(=O)c1ccccc1N[C@H](C)c1cc(C)cc2c(=O)cc(N3CCCCC3)oc12` [Example 377, 2-(2-Methoxyethoxy)ethyl 2-[[(1R)-1-[6-methyl-4-oxo-2-(1-piperidyl)chromen-8-yl]ethyl]amino]benzoate], the concentration for a half-maximal effect (EC50) in the assay on T-47D was above 24 µM. The same measure, in the same setting: for `COC(=O)c1ccccc1N[C@H](C)c1cc(C)cc2c(=O)cc(N3CCCCC3)oc12` [Example 379, Methyl 2-[[(1R)-1-[6-methyl-4-oxo-2-(1-piperidyl)chromen-8-yl]ethyl]amino]benzoate] the value was above 24 µM. Turning to `Cc1cc(C(C)Nc2ccccc2C(=O)O)c2oc(N3CCC4(CC3)CN(C)C(=O)O4)cc(=O)c2c1` (stereo not drawn) [Example 380, 2-[1-[6-Methyl-2-(3-methyl-2-oxo-1-oxa-3,8-diazaspiro[4.5]decan-8-yl)-4-oxo-chromen-8-yl]ethylamino]benzoic acid], in assay [1], the concentration for half-maximal inhibition (IC50) was 1 to 5 µM. In addition, the concentration giving a half-maximal response (EC50) in the assay on T-47D is above 24 µM. As for `Cc1cc(C(C)Nc2ccccc2C(=O)O)c2oc(N3CCC4(CCN(C)C4=O)CC3)cc(=O)c2c1` (stereo not drawn) [Example 381, 2-[1-[6-Methyl-2-(2-methyl-1-oxo-2,8-diazaspiro[4.5]decan-8-yl)-4-oxo-chromen-8-yl]ethylamino]benzoic acid], the EC50 with T-47D is above 24 µM. `Cc1cc([C@@H](C)Nc2ccccc2C(=O)O)c2oc(N3CCC(Cl)CC3)cc(=O)c2c1` [Example 383, 2-[[(1R)-1-[2-(4-Chloro-1-piperidyl)-6-methyl-4-oxo-chromen-8-yl]ethyl]amino]benzoic acid]: in the assay with T-47D, the 50% effective concentration (EC50) is 1 to 5 µM.
